Reference: US12691101B2, “Compound and method for preventing or treating of respiratory diseases comprising the same as an active ingredient” (YONSEI UNIVERSITY, UNIVERSITY - INDUSTRY FOUNDATION (UIF), priority 2019, dated 2026)

How the values were obtained:
[1] = Stability statements
[2] = system: pendrin; assay: Pendrin protein expression in LPS-treated human alveolar epithelial cells (hAEC); assay type: cell-based
Protocol: The lung tissue was harvested and dissolved in a homogenization buffer (PRO-PREP™ extraction solution, iNtRON Biotechnology). The sample was centrifuged at 4° C. for 30 minutes at 13000 g. The supernatant protein concentration was determined by BCA analysis (Thermo Fisher Scientific). The same amount of protein was separated by SDS/PAGE and transferred to a nitrocellulose membrane. The membrane was blocked with 5% skim milk in TBS-T (TBS (170-6435, Bio-Rad Laboratories) and 1% Tween-20 (170-6531, Bio-Rad Laboratories) for 1 hours. Then, the membrane was cultured overnight with the primary antibody diluted with 5% skim milk in TBS-T at 4° C. After washing with TBS-T, the blot was cultured with horseradish peroxidase-combined secondary antibody and 5% skim milk in TBS-T at a room temperature for 1 hour, and then developed using Super-Signal West Pico chemiluminescence detection kit. The antibody used in the present invention includes rabbit SLC26A4 (ab98091, abcam), mouse phospho-Iκ (9246, Cell Signaling Technology), mouse Iκ (4814, Cell Signaling Technology), and rabbit α-tubulin (PA5-16891, Cell Signaling Technology). Western blot quantization was performed using ImageJ (Image Processing and Analysis in Java; NIH, USA) software.

[3] = Auditory brainstem response (ABR) hearing threshold in mice; assay type: in vivo, mouse; settings: 10 mg/kg/day for 1 week
Protocol: The negative effect of F56 was examined by i.p administering of F56 10 mg/kg to female balb/c mice every 24 hours for 7 days. In 24 hours after the last administration, the hearing of mice was measured and serum was obtained. According to the manufacturer's protocol, the total serum level of triiodothyronine (T3) or thyroxine (T4) using a mouse ELISA kit (Calbiotech, T3043T-100 or T4044T-100).
The hearing level was measured in each mouse by measuring ABR threshold using an auditory-evoking potential workstation and BioSig software (Tucker-Davis Technologies, Alachua, FL, USA). The output from the speaker was calibrated using PCB 377C10 microphone (PCB Piezotronics, Inc. New York, NY, USA) and found to be within ±4 dB over the tested frequency range. After anesthetizing the mice, each ear was stimulated with an ear probe sealed inside the ear canal. The body temperature of the mice was maintained at 38° C. with an isothermal heating water-pad. The intensity of the click sound decreased from 70 dB SPL to 10 dB SPL with a 5-dB decrease. The mean value of ABR was calculated and the auditory threshold was defined as the lowest ABR response until wave I of ABR was no longer visually discernible.

[4] = system: LPS-induced acute lung injury mice; assay: LPS-induced ALI in mouse model; assay type: in vivo
Protocol: Mice were slightly anesthetized by isoflurane inhalation (Abbott Laboratory), and were maintained in a supine position with the head raised. LPS (Escherichia coli, 0111: B4, Sigma) (10 mg/kg) in 50 μL PBS was administered by intranasal (i.n.) inhalation. As the control group, 50 μL sterile PBS was intranasally provided. With the aid of a microsyringe from Hamilton, the administration solution was gradually released into the nostrils. In case of the pretreatment model, F56 (10 mg/kg) in 50 μL DMSO was intraperitoneally (i.p) administered before 1 hour of LPS inhalation. In case of the post-treatment model, two doses of F56 were administered at 6 hours and 12 hours after LPS inhalation. The mice of the pretreatment group were euthanized and in 48 hours after LPS inhalation, the lung was harvested. In the post-treatment model, euthanasia and sample collection occurred 24 hours after LPS administration. For SCN^− experiment, after F56 treatment, […]
All mice were euthanized with fetal excessive amount of ketamine and xylazine. BALF was obtained by tracheal cannula using 1 mL sterile saline solution. BALF was centrifuged (4° C., 3000 rpm, 10 minutes) and the supernatant was stored at −80° C. for an additional analysis. The cell pellet was recomposed in 100 μL PBS, and used for the number of cells and cytospin sample. The total number of cells of each sample was determined using a hemocytometer (Marienfield), according to the manufacturer's protocol. Each sample in a 90 μL split amount was transferred to a slide chamber, and then the slide was inserted into the cytospin with outward facing. The slide was centrifuged at 800 rpm for 5 minutes, and then removed from the cell centrifuge, and dried before staining. The cytospin was prepared with a cell centrifuge (Shandon Cytospin 4 cytocentrifuge, Thermo Scientific, Waltham, MA, USA) and stained with Diff-Quik Stain Set (Dade Behring, Newark, DE, USA) to evaluate inflammation. The protein concentration of BAL supernatant was measured using BCA analysis (Thermo Fischer Scientific). 2 microliters of each sample and 198 μL of a working reagent were pipetted in a microplate well and completely mixed in a plate shaker for […]. After culturing at 37° C. for 30 minutes, the plate was cooled and the absorbance was read at 562 nm in a spectrophotometer.
The right lung was isolated and the pulmonary vasculature structure was flushed with saline solution under low pressure and stored at −80° C. before protein extraction. The left lung was inflated via tracheostomy with low-meting agarose (4%) in PBS at 25 cm H2O pressure until the pleural margin was sharpened. Then, the lung was excised and fixed overnight in 10% formaldehyde in PBS and embedded in paraffin for 5 μm sections. The left lung section was stained with H&E and subjectively evaluated with an optical microscope. Histopathology was reviewed in a blind method by two qualified researchers. Five easily identifiable pathological processes were scored using the weighted scale presented in the official ATS workshop report. Lung sections were processed using anti-rabbit SLC26A4 (ab98091, abcam) antibody for immunohistochemistry.
In the lung lysates, the level of macrophage inflammatory protein (MIP-2), interleukin-1β (IL-1β […] and tumor necrosis factor α (TNF-α) was measured using an ELISA kit (Millipore), according to the manufacturer's instructions.
The lung tissue was harvested and dissolved in a homogenization buffer (PRO-PREP™ extraction solution, iNtRON Biotechnology). The sample was centrifuged at 4° C. for 30 minutes at 13000 g. The supernatant protein concentration was determined by BCA analysis (Thermo Fisher Scientific). The same amount of protein was separated by SDS/PAGE and transferred to a nitrocellulose membrane. […]

[5] = post-treatment 10 mg/kg i.p. at 6 and 12 hours after LPS, 24 hours after LPS
[6] = pretreatment 10 mg/kg i.p. 1 hour before LPS, 48 hours after LPS, versus vehicle

CC(C)(C)c1ccc(C2=NC(=Cc3cccs3)C(=O)O2)cc1 [F56, 2-(4-(tert-butyl)phenyl)-4-(thiophen-2-ylmethylene)oxazol-5(4H)-one]
chemical stability [1]: chemically stable | protein expression level of pendrin [2]: reduced | hearing threshold [3]: not changed | level of pro-inflammatory cytokine in lung lysates (IL-1β, MIP-2, IL-6, TNF-α) ([4]; F56 pretreated versus vehicle (DMSO) after LPS): reduced | Phospho-Iκ expression in lung lysates ([4]; F56 treatment before LPS): significantly reduced | BALF protein concentration [4, 5]: considerably reduced | BALF total cell number [4, 5]: considerably reduced | lung injury score [4, 5]: considerably reduced | BAL protein concentration level [4, 6]: reduced | BAL total cell number [4, 6]: reduced | lung injury score [4, 6]: significantly reduced
